One experiment concerns rabbit adipocytes. Particulars: read-out: EC50, lipolytic activity; cited from earlier work.
Experiment [1] addresses T1, Melanocortin-5 (MC-5) receptor (Homo sapiens, UniProt P33032). Kind of experiment: MC-5 receptor binding assay, MDS-PANLABS (human recombinant HEK-293 cells, [125]NDP-α-MSH). More on the design: host or cells: HEK-293 cells. The method, then:
(§1) Binding to the MC-5 receptor was measured in two assays, performed by CEREP and MDS-PANLABS.
The assay run by MDS-PANLABS (Catalog Ref #251400) used human recombinant HEK-293 cells, ^[125]NDP-α-MSH as the ligand (0.035 nM), various concentrations of the compound of formula (I), incubating at 37° C. for 60 min, and detecting binding via scintillation counting. Specific ligand binding to the receptors was defined as the difference between the total binding and the nonspecific binding determined in the presence of an excess (3 μM) of unlabelled NDP-α-MSH. IC50 values were determined by a non-linear, least squares regression analysis using Data Analysis Toolbox. Inhibition constants (Ki) were calculated using the equation of Cheng and Prusoff (Biochem. Pharmacol. 22:3099, 1973) using the observed IC50 of the tested compound, the concentration of radioligand employed in the assay, and the historical values for the Kd of the ligand (obtained experimentally at MDS Pharma Services).
The compound of formula (I) was tested for binding to the MC-5 receptor in both the CEREP and MDS-PANLABS assays with results as listed in Table 3 below.

Experiment [2] concerns human sebocytes. Briefly: cells. Format: cell-based.
Experiment [3] deals with T1, Melanocortin-5 (MC-5) receptor. Briefly: MC-5 receptor binding assay, CEREP (human recombinant CHO cells, [125]NDP-α-MSH). The protocol: as §1
The assay run by CEREP (Catalog Ref. #889-5h) used human recombinant CHO cells, ^[125]NDP-α-MSH as the ligand (0.05 nM concentration), NDP-α-MSH as the non-specific (1 μM), incubating at 37° C. for 60 min and detecting binding via scintillation counting. The specific ligand binding to the receptors was defined as the difference between the total binding and the nonspecific binding determined in the presence of an excess of unlabelled ligand. The IC50 values (the concentration causing a half-maximal inhibition of control specific binding) and Hill coefficients were determined by non-linear regression analysis of the competition curves generated with mean replicate values using Hill equation curve fitting (Y=D+[(A−D)/(1+(C/C50)^nH)], where Y=specific binding, D=minimum specific binding, A=maximum specific binding, C=compound concentration, C50=IC50, and nH=slope factor). This analysis was performed using software developed at CEREP (Hill software) and validated by comparison with data generated by the commercial software SigmaPlot® 4.0 for Windows® (© 1997 by SPSS Inc.). The inhibition constants (Ki) were calculated using the Cheng Prusoff equation (Ki=IC50/(1+(L/KD)), where L=concentration of radioligand in the assay, and KD=affinity of the radioligand for the receptor). […]

The subject of experiment [4] is human sebocytes. Kind of experiment: cells. It is filed as cell-based. The settings on record: read-out: % Inhibition (Nile Red Fluorescence).
The next experiment deals with rat adipocytes. Particulars: read-out: EC50, lipolytic activity; cited from earlier work.
The subject of experiment [5] is isolated human adipocytes. The settings on record: concentrations as high as 1 μM; cited from earlier work.
The test system of experiment [6] is isolated non-human primate adipocytes. Particulars: concentrations as high as 1 μM; cited from earlier work.

Values joined by “and” are separate entries in the source; they are usually repeats but may differ in a detail not shown here. Equal values may be shown once. Read-outs that look alike come from different tables or passages of the source.

T1 sequence (P33032 whole entry): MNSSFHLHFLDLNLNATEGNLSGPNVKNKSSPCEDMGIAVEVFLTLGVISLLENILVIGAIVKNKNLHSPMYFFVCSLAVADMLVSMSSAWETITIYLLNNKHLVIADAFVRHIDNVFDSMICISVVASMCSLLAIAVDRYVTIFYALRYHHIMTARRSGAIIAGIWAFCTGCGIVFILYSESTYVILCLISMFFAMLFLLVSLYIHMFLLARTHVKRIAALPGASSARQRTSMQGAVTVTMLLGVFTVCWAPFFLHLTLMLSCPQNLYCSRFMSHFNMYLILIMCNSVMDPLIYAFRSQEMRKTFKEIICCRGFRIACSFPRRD

The EC50 is the midpoint of the concentration-response curve. As for αMSH, the EC50 in the experiment with rabbit adipocytes was 3.7 nM.

The term IC50 denotes the concentration that gives 50% inhibition. By Ki is commonly meant the dissociation constant of the complex between target and ligand, obtained from inhibition or displacement. One may read the inhibition as the percentage by which the read-out fell short of the control. Turning to `COc1ccccc1N/C(=N\C(=S)Nc1ccccc1)c1ccccc1OC` [Compound (I), 1-[(2-methoxy-phenyl)-(2-methoxy-phenylamino)-methylene]-3-phenyl-thiourea], the IC50 in experiment [1] (MDS-PANLABS MEAN ± SD) is 2350 ± 1670 nM; in experiment [1] (MDS-PANLABS assay, HEK-293 cells, 0.035 nM radioligand, single runs), 1170 nM and 3530 nM; in experiment [3] (CHO cells, 0.05 nM radioligand) it was 57000 nM. Also, the Ki in experiment [1] (MDS-PANLABS MEAN ± SD) was 2200 ± 1560 nM; in experiment [1] (MDS-PANLABS assay, Cheng Prusoff, single runs), 1100 nM and 3310 nM; in experiment [3] (Cheng Prusoff) it was 53000 nM. Moreover, the inhibition at 0.8 µM amounted to 30% in the experiment with human sebocytes [2] (read-out: % Inhibition of Sebaceous Lipid Synthesis, cholesterol esters, Study 1, @ 0.8 μM); 64% with human sebocytes [2] (read-out: % Inhibition of Sebaceous Lipid Synthesis, cholesterol esters, Study 2, @ 0.8 μM); 50% with human sebocytes [2] (read-out: % Inhibition of Sebaceous Lipid Synthesis, squalene, Study 1, @ 0.8 μM); 88% in the experiment with human sebocytes [2] (read-out: % Inhibition of Sebaceous Lipid Synthesis, squalene, Study 2, @ 0.8 μM); 0% in the experiment on human sebocytes [2] (read-out: % Inhibition of Sebaceous Lipid Synthesis, triglycerides, Study 1, @ 0.8 μM); 20% in the experiment with human sebocytes [2] (read-out: % Inhibition of Sebaceous Lipid Synthesis, triglycerides, Study 2, @ 0.8 μM). Moreover, the inhibition at 0.8 µM in the experiment with human sebocytes [4] was determined as 39%. Besides, the inhibition at 1.2 µM is 35% in the experiment with human sebocytes [2] (read-out: % Inhibition of Sebaceous Lipid Synthesis, cholesterol esters, Study 1, @ 1.2 μM); 72% with human sebocytes [2] (read-out: % Inhibition of Sebaceous Lipid Synthesis, cholesterol esters, Study 2, @ 1.2 μM); 55% in the experiment on human sebocytes [2] (read-out: % Inhibition of Sebaceous Lipid Synthesis, squalene, Study 1, @ 1.2 μM); 92% with human sebocytes [2] (read-out: % Inhibition of Sebaceous Lipid Synthesis, squalene, Study 2, @ 1.2 μM); 10% with human sebocytes [2] (read-out: % Inhibition of Sebaceous Lipid Synthesis, triglycerides, Study 1, @ 1.2 μM); 16% with human sebocytes [2] (read-out: % Inhibition of Sebaceous Lipid Synthesis, triglycerides, Study 2, @ 1.2 μM). Also, the inhibition at 1.2 µM in the experiment on human sebocytes [4] was determined as 43%. Besides, the inhibition at 1.6 µM in the experiment on human sebocytes [2] (read-out: % Inhibition of Sebaceous Lipid Synthesis, cholesterol esters, Study 1, @ 1.6 μM) worked out at 45%; in the experiment with human sebocytes [2] (read-out: % Inhibition of Sebaceous Lipid Synthesis, cholesterol esters, Study 2, @ 1.6 μM), 74%; in the experiment with human sebocytes [2] (read-out: % Inhibition of Sebaceous Lipid Synthesis, squalene, Study 1, @ 1.6 μM), 62%; with human sebocytes [2] (read-out: % Inhibition of Sebaceous Lipid Synthesis, squalene, Study 2, @ 1.6 μM) it was 94%; with human sebocytes [2] (read-out: % Inhibition of Sebaceous Lipid Synthesis, triglycerides, Study 1, @ 1.6 μM), 8%; in the experiment with human sebocytes [2] (read-out: % Inhibition of Sebaceous Lipid Synthesis, triglycerides, Study 2, @ 1.6 μM), 14%. In addition, the inhibition at 3.2 µM turned out to be 60% with human sebocytes [2] (read-out: % Inhibition of Sebaceous Lipid Synthesis, cholesterol esters, Study 1, @ 3.2 μM); 86% in the experiment on human sebocytes [2] (read-out: % Inhibition of Sebaceous Lipid Synthesis, cholesterol esters, Study 2, @ 3.2 μM); 76% in the experiment on human sebocytes [2] (read-out: % Inhibition of Sebaceous Lipid Synthesis, squalene, Study 1, @ 3.2 μM); 96% in the experiment on human sebocytes [2] (read-out: % Inhibition of Sebaceous Lipid Synthesis, squalene, Study 2, @ 3.2 μM); 2% with human sebocytes [2] (read-out: % Inhibition of Sebaceous Lipid Synthesis, triglycerides, Study 1, @ 3.2 μM); 6% in the experiment with human sebocytes [2] (read-out: % Inhibition of Sebaceous Lipid Synthesis, triglycerides, Study 2, @ 3.2 μM). For the same compound, the inhibition at 0.4 µM with human sebocytes [2] (read-out: % Inhibition of Sebaceous Lipid Synthesis, cholesterol esters, Study 2, @ 0.4 μM) worked out at 44%; with human sebocytes [2] (read-out: % Inhibition of Sebaceous Lipid Synthesis, squalene, Study 2, @ 0.4 μM), 64%; with human sebocytes [2] (read-out: % Inhibition of Sebaceous Lipid Synthesis, triglycerides, Study 2, @ 0.4 μM), 22%; with human sebocytes [4], 24%. For the same compound, in the experiment on human sebocytes [4], the inhibition at 0.6 µM was found to be 25%. The inhibition at 1 µM in the experiment with human sebocytes [4] was 45%.

Regarding “ACTH: melanocortin neuropeptide arising from pro-opiomelanocortin (POMC) (SYSMEHFRWGKPVGKKRRPVKVYPNGAEDESAEAFPLEF; Corticotropin; UniProt P01189 138-176, looked up)”, the values for the EC50 in the experiment on rabbit adipocytes and with rat adipocytes were 16.4 nM and 1.34 nM, respectively. The effect on lipolysis result in experiment [5] and in experiment [6] was “very little effect” each time.

These data come from patent US8536226B2, “Methods for the treatment of dermatological disorders” (Janssen Pharmaceutica, NV, priority 2008, dated 2013).
